Several values for one entry are separate records, joined by “and”; a condition that tells them apart may be missing. Equal values may be shown once.
Biological target: T1, AcrAB efflux pump (Escherichia coli, UniProt P31224)
T1 construct: endogenous in cells; host or cells: E. coli BL21 (DE3) with aspCproApET32 plus pProNde with or without tolC
Test: Monatin excretion with 2.5 mM sodium decanoate treatment, strains with or without tolC overexpression
Type: cell-based
Settings: for Monatin/dry cell weight, 25 hr average / Monatin/dry cell weight, 50 hr average: n = 2
Procedure: Strains used for the experiment included E. coli BL21 (DE3) : : aspCproApET32 and tolC pProNde or pProNde without tolC. For inoculum, the E. coli strains were grown overnight at 37° C. and 250 rpm in Luria-Bertani (“LB”) medium with 100 μg/mL ampicillin and 50 μg/mL kanamycin.
For the experimental treatments, Trp-1+glucose medium, a minimal medium that has been used for increased production of tryptophan in E. coli cells (Zeman, et al. Folia Microbiol. 35:200-204, (1990)), was prepared as follows. To 800 mL nanopure water the following reagents were added: 2 g (NH4)2SO4 and 13.6 g KE2PO4. The pH was adjusted to 7.0, the volume was increased to 948 mL, and the medium was autoclaved. Following sterilization, 0.2 g MgSO4.7H2O, 0.01 g CaCl2.2H2O, and 0.5 mg FeSO4.7H2O were added to the medium in a 1.8 mL volume followed by addition of 0.2 mL of Neidhardt's micronutrient solution. Neidhardt, F. C., et al., “Culture medium for Enterobacteria,” J. Bacteriol. 119:736-746, (1974). Neidhardt's medium includes (per liter): 0.18 g (NH4)6(MO7)24-4H2O, 1.24 g H3BO3, 0.36 g CoCl2.6H2O, 0.12 g CuSO4 (anhydrous), 0.8 g MnCl2.4H2O, and 0.14 g ZnSO4.7H2O. A 50% glucose solution was prepared separately and sterile-filtered. Forty mL of glucose solution and 10 mL of 1 M 3-Morpholinopropanesulfonic acid (“MOPS”) buffer were added to the base medium (950 mL) for a 1 L final volume.
Conditions for the treatments included 30° C. throughout the experiment and 250 rpm agitation. At 0.4 OD600 nm, induction of the plasmid genes was initiated. At induction, 0.5 mM IPTG, 0.5% arabinose, 0.5 mM pyridoxine hydrochloride, and 0.2 mL of Balch's vitamins (Balch, W. E., et al., “Methanogens: reevaluation of a unique biological group,” Microbiol. Rev. 43:260-296, (1979)) were added. […] Some treatments included 2.5 mM sodium decanoate addition at 3 hours following induction.
The amount of monatin excreted was determined using the method described in Example 13.
In this example, the combination of induction of the AcrAB efflux pump with increased availability of the TolC channels was evaluated. E. coli strains overexpressing the tolC gene were additionally subjected to treatment with 2.5 mM sodium decanoate to simultaneously induce the AcrAB pumps.

[1] = E. coli BL21 DE3 aspC proApET32 & pProNde w/o tolC (control)
[2] = E. coli BL21 DE3 aspC proApET32 & tolCpProNde

T1 sequence (P0AE06 25-397): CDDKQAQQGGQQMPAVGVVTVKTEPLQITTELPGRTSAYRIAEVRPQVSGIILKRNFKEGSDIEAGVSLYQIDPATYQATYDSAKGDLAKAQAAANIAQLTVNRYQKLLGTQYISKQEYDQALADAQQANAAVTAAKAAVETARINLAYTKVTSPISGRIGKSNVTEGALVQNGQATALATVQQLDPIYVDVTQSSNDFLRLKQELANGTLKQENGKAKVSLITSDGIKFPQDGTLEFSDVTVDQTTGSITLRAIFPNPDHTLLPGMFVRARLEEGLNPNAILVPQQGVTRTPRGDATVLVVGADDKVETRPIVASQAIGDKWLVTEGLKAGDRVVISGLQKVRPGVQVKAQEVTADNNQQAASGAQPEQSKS
T1 sequence (P02930 23-493, further chain): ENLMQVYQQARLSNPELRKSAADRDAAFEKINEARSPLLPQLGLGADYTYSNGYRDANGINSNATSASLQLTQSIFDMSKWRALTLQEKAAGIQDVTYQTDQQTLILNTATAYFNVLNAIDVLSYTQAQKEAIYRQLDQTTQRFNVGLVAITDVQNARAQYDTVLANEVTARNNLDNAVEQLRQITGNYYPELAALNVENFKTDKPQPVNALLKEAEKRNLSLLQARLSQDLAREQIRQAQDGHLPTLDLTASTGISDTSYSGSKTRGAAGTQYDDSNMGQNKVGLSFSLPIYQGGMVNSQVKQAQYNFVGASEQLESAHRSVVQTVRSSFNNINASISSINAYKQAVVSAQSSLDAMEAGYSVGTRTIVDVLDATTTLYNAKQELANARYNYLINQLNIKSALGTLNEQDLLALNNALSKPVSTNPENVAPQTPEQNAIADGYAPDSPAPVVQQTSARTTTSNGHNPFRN
T1 sequence (P31224 whole entry): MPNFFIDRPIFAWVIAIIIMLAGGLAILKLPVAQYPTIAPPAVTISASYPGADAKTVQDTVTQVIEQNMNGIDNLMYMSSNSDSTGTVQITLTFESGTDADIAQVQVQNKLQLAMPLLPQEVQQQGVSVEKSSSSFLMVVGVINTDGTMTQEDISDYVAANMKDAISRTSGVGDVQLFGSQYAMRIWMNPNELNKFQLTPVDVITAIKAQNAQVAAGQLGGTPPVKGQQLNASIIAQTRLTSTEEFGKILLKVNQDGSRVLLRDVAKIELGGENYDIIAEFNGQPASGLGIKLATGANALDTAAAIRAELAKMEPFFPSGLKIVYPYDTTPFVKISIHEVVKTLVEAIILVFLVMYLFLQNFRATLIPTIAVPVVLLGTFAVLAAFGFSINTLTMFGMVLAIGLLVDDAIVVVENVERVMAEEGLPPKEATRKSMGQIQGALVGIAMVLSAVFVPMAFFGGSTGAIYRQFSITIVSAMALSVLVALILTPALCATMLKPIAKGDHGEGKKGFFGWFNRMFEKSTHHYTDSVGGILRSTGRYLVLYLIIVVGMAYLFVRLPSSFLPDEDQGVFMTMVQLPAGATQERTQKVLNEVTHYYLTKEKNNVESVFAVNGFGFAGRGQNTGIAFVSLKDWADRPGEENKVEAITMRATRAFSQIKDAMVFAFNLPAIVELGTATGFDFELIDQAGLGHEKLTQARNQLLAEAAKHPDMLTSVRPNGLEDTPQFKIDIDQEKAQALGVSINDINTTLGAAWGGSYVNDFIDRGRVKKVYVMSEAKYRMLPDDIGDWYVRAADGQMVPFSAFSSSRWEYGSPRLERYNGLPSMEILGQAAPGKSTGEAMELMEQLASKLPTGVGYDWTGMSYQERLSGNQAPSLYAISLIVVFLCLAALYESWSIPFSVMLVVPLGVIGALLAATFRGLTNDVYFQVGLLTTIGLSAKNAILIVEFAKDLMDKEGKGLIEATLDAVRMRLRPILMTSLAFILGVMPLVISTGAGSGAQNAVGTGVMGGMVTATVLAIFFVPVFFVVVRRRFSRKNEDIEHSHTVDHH

CCCCCCCCCC(=O)[O-].[Na+] [sodium decanoate]
Monatin/dry cell weight, 25 hr [1]: 0.19 mg monatin/g dcw and 0.17 mg monatin/g dcw | Monatin/dry cell weight, 50 hr [1]: 0.09 mg monatin/g dcw and 0.11 mg monatin/g dcw | Monatin/dry cell weight, 25 hr [2]: 8.88 mg monatin/g dcw and 12.19 mg monatin/g dcw | Monatin/dry cell weight, 50 hr [2]: 7.99 mg monatin/g dcw and 10.23 mg monatin/g dcw | Monatin/dry cell weight, 25 hr average (pProNde w/o tolC (control)): 0.18 mg monatin/g dcw | Monatin/dry cell weight, 50 hr average (pProNde w/o tolC (control)): 0.10 mg monatin/g dcw | Monatin/dry cell weight, 25 hr average (tolCpProNde): 10.53 mg monatin/g dcw | Monatin/dry cell weight, 50 hr average (tolCpProNde): 9.11 mg monatin/g dcw

From patent US8158389B2, “Products and methods for in vivo secretion of monatin” (priority 2005, dated 2012)
